Patent US11518750B2, “3-methylideneoxan-4-one compounds and substituted derivatives thereof as inhibitors of telomerase” (NORTHWESTERN UNIVERSITY, priority 2019, dated 2022)
pIC50: −log10 of the molar value.

Assays:
Plasma stability assay = assay type: in vitro ADME; conditions: in words
N-acetyl cysteine (NAC) = test: physchem; assay type: physicochemical; conditions: pH 7.4
Protocol: (§1) N-Acetyl Cysteine, N-Acetyl Lysine and N-Acetyl Serine Kinetic Studies. Assay was conducted as described with minor modifications.^81-84 Briefly, a 1 mM stock solution of NU-1 with internal standard (phenacetin) in DMSO was added to a 50 mM solution of either N-acetyl cysteine, N-acetyl lysine or N-acetyl serine in 67 mM phosphate buffer (pH 7.4), as well as added to a solution of 67 mM phosphate buffer (pH 7.4) control. Samples were taken every 2 min for 2 h and quenched immediately with MeOH and centrifuged upon sampling. Samples were placed on a Waters Acquity UPLC-MS system and measured for the ratio of NU-1 to internal standard intensity to calculate the amount of NU-1 present at each time point relative to the amount of NU-1 at the first injection of the compound in buffer. Assay was conducted in triplicate.

[1] = N-acetyl serine and N-acetyl lysine reactivity; assay type: physicochemical; conditions: HPLC
Protocol: as §1

[2] = Schiff-base measurement with glycine; assay type: physicochemical; conditions: incubation with glycine
Protocol: Schiff-Base Measurement. A 1 mM stock solution of NU-1 in DMSO-d6 was added to a solution of 5 mM solution of glycine in D2O in an NMR tube. The mixture was analyzed by ^1H NMR over 48 hours to analyze formation of Schiff-bases with the ketone of NU-1.

tcTERT = test: Protease digestion and mass spectrometry of treated tcTERT; assay type: binding, Tribolium castaneum; conditions: proteolysis and tandem mass spectrometry
Protocol: Protease Digestion and Mass Spectrometry Analysis. tcTERT (50 μg, ˜600 pmol) was treated with chrolactomycin, NU-1, helenalin, costunolide or DMSO for 1 hr at 37° C. The reaction was diluted with ammonium bicarbonate buffer (pH 8.0), then reduced for 30 min at 56° C. with 10 mM DTT. After cooling to 23° C., the protein was alkylated with 25 mM iodoacetamide for 30 min at 23° C. in the dark, followed by trypsin digestion (2.5 μg, Promega) overnight at 37° C. Digested peptides (˜2 pmol) were injected onto a self-packed precolumn (4 cm POROS10R2) and eluted into the mass spectrometer (LTQ Orbitrap Velos, Thermo Fisher). Peptides were subjected to MS^2 by CAD (electron multiplier detection, relative collision energy 35%, q=0.25).

[3] = Liver microsomal stability assay; assay type: in vitro ADME; conditions: in words
Protocol: Liver Microsomal Stability Assay. Assay was conducted using the Corning UltraPool HLM 150 Mixed Gender microsomal kit (Corning Life Sciences) according to the manufacturer's protocol.

Saos-2 = test: Cell viability, telomerase-negative cells; assay type: cell-based; conditions: Saos-2, up to 100 μM
MCF-7 proteome = test: Competitive gel imaging with 5-iodoacetamido-fluorescein (competitive ABPP); assay type: binding, human; conditions: 10 nM to 100 μM, 1 hr, then fluorescein-iodoacetamide 10 μM
Protocol: Competitive Gel Image Analysis. MCF-7 cells were cultured in DMEM media supplemented with 10% Fetal Bovine Serum (FBS), 1% pen/strep and with 5% CO2 and 37° C. Cells were plated cultured for 3 days. Flasks were rinsed twice with PBS and treated with 0.05% trypsin-EDTA (Thermo Fisher) to detach cells. The cell suspension was washed twice in PBS and the cell pellet was resuspended in 200 μl of M-PER extraction reagent (Thermo Fisher)/10^6 cells, and incubated for 30 min. Cell extracts were transferred to microcentrifuge tubes, 200 μl/tube, and centrifuged at 12,000×g for 20 min to remove cell debris. The corresponding lysate was then further diluted to a total protein concentration of 2 mg/mL as measured by Nanodrop (Thermo Fisher). 48 μL of MCF-7 lysate was added to twelve microcentrifuge tubes (six per compound), followed by treatment of cell lysate with 1 μL solution of NU-1/chrolactomycin (equating to doses ranging from 10 nM to 100 μM). The samples were incubated for 1 hr, followed by addition of 1 μl of 5-iodoacetamido-fluorescein to a final concentration of 10 μM. The samples were again incubated for 1 hr, followed by quenching the reaction with 15 μL NuPAGE LDS Sample Buffer (4×). […]

[4] = molecular target: T1, telomerase in MCF7 cells in culture (Homo sapiens, UniProt O14746); test: TRAP assay in cultured cells; assay type: cell-based; conditions: TRAP assay, MCF7 cells in culture
T1 construct: endogenous in cells; host or cells: MCF-7
Protocol: Telomeric Repeat Amplification Protocol Assay. The telomeric repeat amplification protocol (TRAP) assay was performed using the TRAPeze RT Telomerase Detection Kit (EMD Millipore) and iTaq DNA polymerase (Bio-Rad) according to the manufacturer's protocol.
Cultured Cells TRAP Analysis. MCF-7, HeLa, ACHN, MDA-MB231 and A549 cells were cultured in DMEM media supplemented with 10% Fetal Bovine Serum (FBS), 1% pen/strep and with 5% CO2 and 37° C. Cells were plated in 96 well plates and allowed to attach for 24 h. Media was removed, and fresh media containing various concentrations of compound was added, and the plate was incubated for 24 h. […] The cell extract was then centrifuged at 12,000×g for 20 min at 4° C. to remove cell debris. Note: “fresh” media constitutes media supplemented with 10% Fetal Bovine Serum (FBS) and 1% pen/strep that has not been previously used for cell culture (e.g., not conditioned media). TRAP analysis was conducted as above.

[5] = molecular target: T2, Human telomerase purified from telomerase-overexpressing HEK293T cells (Homo sapiens, UniProt O14746); test: Direct (non-PCR) primer extension telomerase activity assay, purified telomerase; assay type: biochemical; conditions: purified telomerase
T2 construct: made in house; host or cells: HEK293T (telomerase-overexpressing)
Protocol: Primer-Extension Telomerase Activity Assays. […] ID NO: 1) (2 μM)].

VA-13 = test: Cell viability, telomerase-negative cells; assay type: cell-based; conditions: VA-13, up to 100 μM

T2 sequence (O14746 whole entry): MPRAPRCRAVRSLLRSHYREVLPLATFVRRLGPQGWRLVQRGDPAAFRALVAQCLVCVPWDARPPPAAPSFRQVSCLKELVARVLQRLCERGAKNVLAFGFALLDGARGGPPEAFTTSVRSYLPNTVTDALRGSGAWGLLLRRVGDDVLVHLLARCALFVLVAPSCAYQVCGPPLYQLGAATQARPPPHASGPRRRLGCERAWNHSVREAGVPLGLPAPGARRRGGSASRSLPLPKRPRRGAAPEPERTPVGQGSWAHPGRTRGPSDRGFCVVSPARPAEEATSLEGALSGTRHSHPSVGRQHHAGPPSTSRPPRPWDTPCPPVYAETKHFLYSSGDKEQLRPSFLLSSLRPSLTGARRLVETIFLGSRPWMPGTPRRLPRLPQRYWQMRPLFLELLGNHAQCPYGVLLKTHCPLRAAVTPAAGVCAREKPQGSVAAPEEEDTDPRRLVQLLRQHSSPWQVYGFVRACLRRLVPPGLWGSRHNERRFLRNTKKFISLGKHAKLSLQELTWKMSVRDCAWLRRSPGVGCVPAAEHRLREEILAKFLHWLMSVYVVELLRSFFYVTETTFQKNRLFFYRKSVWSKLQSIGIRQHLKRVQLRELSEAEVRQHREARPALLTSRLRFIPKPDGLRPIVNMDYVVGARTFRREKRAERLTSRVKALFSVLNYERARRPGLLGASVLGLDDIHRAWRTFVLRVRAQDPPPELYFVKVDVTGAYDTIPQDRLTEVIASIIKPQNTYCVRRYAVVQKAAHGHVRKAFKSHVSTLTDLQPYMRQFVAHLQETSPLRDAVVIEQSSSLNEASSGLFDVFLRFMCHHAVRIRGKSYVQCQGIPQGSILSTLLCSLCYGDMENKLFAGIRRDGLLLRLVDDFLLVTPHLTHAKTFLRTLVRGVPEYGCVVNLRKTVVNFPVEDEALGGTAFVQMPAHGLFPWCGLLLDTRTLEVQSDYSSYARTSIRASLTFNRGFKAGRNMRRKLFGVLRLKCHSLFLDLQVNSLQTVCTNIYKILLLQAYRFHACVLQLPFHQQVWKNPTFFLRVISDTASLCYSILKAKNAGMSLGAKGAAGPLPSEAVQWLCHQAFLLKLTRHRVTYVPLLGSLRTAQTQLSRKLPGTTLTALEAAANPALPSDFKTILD
T2 sequence (O60832 whole entry partner): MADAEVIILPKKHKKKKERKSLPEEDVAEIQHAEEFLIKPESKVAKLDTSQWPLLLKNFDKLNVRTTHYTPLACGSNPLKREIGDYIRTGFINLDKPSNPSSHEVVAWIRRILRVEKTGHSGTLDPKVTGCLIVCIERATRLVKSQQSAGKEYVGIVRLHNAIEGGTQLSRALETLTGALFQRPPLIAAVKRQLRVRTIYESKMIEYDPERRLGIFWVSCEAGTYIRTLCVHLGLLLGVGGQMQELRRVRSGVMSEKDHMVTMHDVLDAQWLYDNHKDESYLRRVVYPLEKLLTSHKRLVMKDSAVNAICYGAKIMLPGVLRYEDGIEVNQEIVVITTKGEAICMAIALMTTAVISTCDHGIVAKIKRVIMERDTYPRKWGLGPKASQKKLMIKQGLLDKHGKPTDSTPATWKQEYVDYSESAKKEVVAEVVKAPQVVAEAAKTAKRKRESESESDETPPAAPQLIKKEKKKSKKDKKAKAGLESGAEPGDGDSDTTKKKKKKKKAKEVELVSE
T2 sequence (Q9NPE3 whole entry partner): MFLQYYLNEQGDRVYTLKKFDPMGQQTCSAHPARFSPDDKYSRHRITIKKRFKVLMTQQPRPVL
T2 sequence (Q9NX24 whole entry partner): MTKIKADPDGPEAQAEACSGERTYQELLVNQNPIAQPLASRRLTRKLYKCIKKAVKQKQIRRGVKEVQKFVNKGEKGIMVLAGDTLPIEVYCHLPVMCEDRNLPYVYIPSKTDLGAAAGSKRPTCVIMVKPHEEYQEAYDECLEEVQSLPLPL
T2 sequence (Q9NY12 whole entry partner): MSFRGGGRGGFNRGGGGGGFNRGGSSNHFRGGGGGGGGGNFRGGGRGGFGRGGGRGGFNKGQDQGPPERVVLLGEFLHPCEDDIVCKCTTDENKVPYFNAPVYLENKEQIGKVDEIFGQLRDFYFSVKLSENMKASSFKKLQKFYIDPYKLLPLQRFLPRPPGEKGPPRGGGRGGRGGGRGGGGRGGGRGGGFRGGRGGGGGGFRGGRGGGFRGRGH
T1 sequence (O14746 whole entry): as the sequence (O14746 whole entry) above
T1 sequence (O60832 whole entry partner): as the sequence (O60832 whole entry partner) above
T1 sequence (Q9NPE3 whole entry partner): as the sequence (Q9NPE3 whole entry partner) above
T1 sequence (Q9NX24 whole entry partner): as the sequence (Q9NX24 whole entry partner) above
T1 sequence (Q9NY12 whole entry partner): as the sequence (Q9NY12 whole entry partner) above
T1 sequence (Q9BUR4 whole entry partner): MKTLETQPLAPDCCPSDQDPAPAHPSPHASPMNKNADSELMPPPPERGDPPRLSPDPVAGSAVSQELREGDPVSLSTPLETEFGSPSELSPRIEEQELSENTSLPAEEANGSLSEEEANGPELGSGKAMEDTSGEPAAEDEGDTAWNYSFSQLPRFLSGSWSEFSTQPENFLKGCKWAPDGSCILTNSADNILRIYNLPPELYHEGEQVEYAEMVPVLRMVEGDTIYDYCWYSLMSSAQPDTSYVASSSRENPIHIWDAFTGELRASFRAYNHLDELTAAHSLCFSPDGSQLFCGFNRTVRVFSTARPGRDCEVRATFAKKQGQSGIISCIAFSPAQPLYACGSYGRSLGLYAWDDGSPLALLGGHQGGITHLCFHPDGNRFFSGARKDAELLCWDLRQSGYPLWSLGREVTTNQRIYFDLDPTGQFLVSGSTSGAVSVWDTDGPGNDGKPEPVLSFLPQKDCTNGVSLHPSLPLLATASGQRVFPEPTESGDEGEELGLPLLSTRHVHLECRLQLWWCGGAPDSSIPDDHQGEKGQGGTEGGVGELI

For `C=C1C(=O)[C@](C)(C(=O)OC)[C@H](CCc2cn(Cc3ccc(F)cc3F)nn2)O[C@@H]1C` [NU-1, methyl (2S,3R,6R)-2-(2-(1-(2,4-difluorobenzyl)-1H-1,2,3-triazol-4-yl)ethyl)-3,6-dimethyl-5 methylene-4-oxotetrahydro-2H-pyran-3-carboxylate], the plasma stability (Plasma stability assay) was “satisfactory performance”, the half-life at 1 μM (N-acetyl cysteine (NAC)) was 42 min and the amino acid adducts [1] was “No amino acid adducts were found”. For the same compound, the ketone-Schiff base formation [2] was “no ketone-Schiff base formation”, the “adduct formation with tcTERT peptides” value (tcTERT) was “single modified peptide” and the microsomal stability [3] was “satisfactory performance”. For the same compound, the effect on viability (Saos-2) was “did not affect viability”, the “off-target protein labeling (loss of protein banding)” value (MCF-7 proteome) was “minimal loss of protein banding and streaking” and the pIC50 [4] was 6.57. For the same compound, the “time to complete inhibition” value ([5]; 100 μM) was about 6 h, the “inhibition of telomere repeat synthesis” value ([5]; in words) was “low-micromolar range” and the effect on viability (VA-13) was “did not affect viability”.
